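Method: 48-hour compound exposure of cells in 96-well plates, five concentrations, linear interpolation of endpoints. GI50 = concentration required for 50% inhibition of growth.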 The source made the active and inactive calls. Rule as the data show it: active = GI50 up to about 1.1 µM and inactive = higher. Where a SMILES comes first, the peptide text is derived from it. The star is where a group is joined. Fmoc = O=C(OCC1c2ccccc2-c2ccccc21)*; Boc = CC(C)(C)OC(=O)*
How the values were obtained:
Experiment in all cases: NCI-60 cell line screen, 48 h
OVCAR-3 = system: OVCAR-3
NCI-H23 = system: NCI-H23
CAKI-1 = system: CAKI-1
RPMI-8226 = system: RPMI-8226
HOP-92 = system: HOP-92
MOLT-4 = system: MOLT-4
HL-60 = system: HL-60
LOX IMVI = system: LOX IMVI
PC-3 = system: PC-3
SK-MEL-2 = system: SK-MEL-2
SN12C = system: SN12C
COLO 205 = system: COLO 205
HCT-15 = system: HCT-15
SK-OV-3 = system: SK-OV-3
ACHN = system: ACHN
SNB-19 = system: SNB-19
786-0 = system: 786-0
HOP-62 = system: HOP-62
U-251 = system: U-251
K562 = system: K562

Compound | GI50 (OVCAR-3) | GI50 (NCI-H23) | GI50 (CAKI-1) | GI50 (RPMI-8226) | GI50 (HOP-92) | GI50 (MOLT-4) | GI50 (HL-60) | GI50 (LOX IMVI) | GI50 (PC-3) | GI50 (SK-MEL-2) | GI50 (SN12C) | GI50 (COLO 205) | GI50 (HCT-15) | GI50 (SK-OV-3) | GI50 (ACHN) | GI50 (SNB-19) | GI50 (786-0) | GI50 (HOP-62) | GI50 (U-251) | GI50 (K562)
COc1ccccc1/C=C1\Sc2scc(-c3cccc([N+](=O)[O-])c3)[n+]2C1=O | 9.75 µM (inactive) | 10.4 µM (inactive) | 2.43 µM (inactive) | 3.18 µM (inactive) | 4.98 µM (inactive) | 1.28 µM (inactive) | 0.26 µM (active) | 1.71 µM (inactive) | 15.7 µM (inactive) | 12.8 µM (inactive) | 2.88 µM (inactive) | 2.11 µM (inactive) | 2.11 µM | 13.2 µM (inactive) | 3.06 µM (inactive) | 12.1 µM (inactive) | 2.76 µM (inactive) | 13.9 µM (inactive) | 14.9 µM (inactive) | 2.79 µM (inactive)
CCOC(=O)c1c(CN2CCNCC2)nc2ccccc2c1-c1ccccc1 | 17.5 µM (inactive) | 18.7 µM (inactive) | 12.2 µM (inactive) | 14.4 µM (inactive) | 4.69 µM (inactive) | 10.8 µM (inactive) | 12.9 µM (inactive) | 15.8 µM (inactive) | 13.4 µM (inactive) | 15.6 µM (inactive) | 14.7 µM (inactive) | 14.3 µM (inactive) | 16.1 µM | 16.5 µM (inactive) | 16.8 µM (inactive) | 17.5 µM (inactive) | 12.7 µM (inactive) | 16.9 µM (inactive) | 14.3 µM (inactive) | 12.6 µM (inactive)
COc1ccc(CC[N+]2(C)COc3cc4oc(=O)cc(C)c4cc3C2)cc1OC (stereo not given) | > 100 µM (inactive) | > 100 µM (inactive) | > 100 µM (inactive) | > 100 µM (inactive) | > 100 µM (inactive) | 1.61 µM (inactive) | > 100 µM (inactive) | > 100 µM (inactive) | > 100 µM (inactive) | > 100 µM (inactive) | > 100 µM (inactive) | > 100 µM (inactive) | > 100 µM | > 100 µM (inactive) | > 100 µM (inactive) | > 100 µM (inactive) | > 100 µM (inactive) | > 100 µM (inactive) | > 100 µM (inactive) | 2.45 µM (inactive)
Cc1cc2c(nn1)-c1ccccc1C2=O | > 10 µM (inactive) | > 10 µM (inactive) | > 10 µM (inactive) | > 10 µM (inactive) | > 10 µM (inactive) | > 10 µM (inactive) | > 10 µM (inactive) | > 10 µM (inactive) | > 10 µM (inactive) | > 10 µM (inactive) | > 10 µM (inactive) | > 10 µM (inactive) | > 10 µM | > 10 µM (inactive) | > 10 µM (inactive) | > 10 µM (inactive) | > 10 µM (inactive) | > 10 µM (inactive) | > 10 µM (inactive) | > 10 µM (inactive)
CC(C)(C)OC(=O)NCCCCC(NC(=O)C(Cc1c[nH]c2ccccc12)NC(=O)OCC1c2ccccc2-c2ccccc21)C(=O)O (stereo not given) (Fmoc-Trp-Lys(Boc)-OH; configuration not given here) | 18.2 µM (inactive) | 31 µM (inactive) | 17.1 µM (inactive) | 25 µM (inactive) | 23.8 µM (inactive) | 19.8 µM (inactive) | 15.5 µM (inactive) | 21.6 µM (inactive) | 34.8 µM (inactive) | 23.1 µM (inactive) | 52.2 µM (inactive) | 64.7 µM (inactive) | > 100 µM | 5 µM (inactive) | > 100 µM (inactive) | 27.3 µM (inactive) | 80 µM (inactive) | 39.5 µM (inactive) | 17.1 µM (inactive) | 18.8 µM (inactive)

Source: ChEMBL document CHEMBL1201862, “PubChem BioAssay data set” (2004)
